IC50 and AC50 data for 14 compounds are collected here from patent US20240368163A1, “COMPOUNDS AND METHODS FOR MODULATING SPLICING” (REMIX THERAPEUTICS INC., priority 2021, published 2024).

Format in all cases: cell-based, human
The subject of assay [1] is HTT. Put plainly: Splicing RT-qPCR assay, HTT mRNA canonical junction (CJ) and alternative junction (AJ). The note with it: Homo sapiens; for AC50: increase in AJ mRNA. Summed up: (§1)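 Splice switching is measured in A673 or K562 cells after 24 h compound exposure (maximum 10 uM, 3-fold steps). Canonical and alternative junction mRNA levels are quantified by RT-qPCR relative to housekeeper and DMSO.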

Assay [2] has as its system MYB. The experiment in a line: Splicing RT-qPCR assay, MYB mRNA canonical junction (CJ) and alternative junction (AJ). As to conditions: Homo sapiens; for AC50: increase in AJ mRNA. Summed up:
as §1

Another assay concerns SMN2. Put plainly: Splicing RT-qPCR panel, SMN2 canonical junction (CJ) mRNA. As to conditions: Homo sapiens, RT-qPCR panel, canonical junction mRNA; compound concentration having 50% response in CJ decrease; read-out: SMN2 IC50 (decrease in CJ mRNA levels). The method in brief: as §1
Assay [3] relates to Target C. Put plainly: Splicing RT-qPCR panel, Target C canonical junction (CJ) mRNA. As to conditions: Homo sapiens, RT-qPCR panel, canonical junction mRNA; compound concentration having 50% response in CJ decrease; read-out: Target C IC50 (decrease in CJ mRNA levels). Summed up: as §1
Assay [4] relates to MYB. Put plainly: HiBiT protein abundance assay, MYB. As to conditions: Homo sapiens, K562, 24 h, Table 13A, modified K562 cells. Summed up: (§2)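 Luminescent readout from lytic HiBiT/LgBiT complementation reports endogenous tagged protein level in engineered K562 cells. Compounds dosed 24 h, top 10 μM final, 3-fold steps, 10 points. IC50 is the concentration giving 50% of untreated-control abundance, from 4-parameter logistic fit.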

Assay [5] concerns HTT. Put plainly: HiBiT protein abundance assay, HTT. As to conditions: Homo sapiens, K562, 24 h, Table 13A, modified K562 cells. Summed up: as §2
Assay [6] concerns Target C. The experiment in a line: HiBiT protein abundance assay, Target C. As to conditions: Homo sapiens, K562, 24 h, Table 13A, modified K562 cells. Summed up: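 Knock-in HiBiT clones, 10000/well; 10-pt 3-fold titration, top 10 μM final; DMSO ≤0.25%; 24 h, 37 °C, 5% CO2. Lytic HiBiT luminescence readout. 4PL fit, IC50 = concentration giving 50% of untreated abundance.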
[7] abbreviates: 24 h, decrease in CJ mRNA, A673 or K562 cells, 24 hours treatment, RT-qPCR, read-out: HTT CJ IC50.
[8] abbreviates: 24 h, A673 or K562 cells, 24 hours treatment, RT-qPCR.
[9] abbreviates: RT-qPCR panel, canonical junction mRNA, compound concentration having 50% response in CJ decrease, read-out: HTT IC50 (decrease in CJ mRNA levels).
Setting [10] is: 24 h, decrease in CJ mRNA, A673 or K562 cells, 24 hours treatment, RT-qPCR, read-out: MYB CJ IC50.
Setting [11] is: RT-qPCR panel, canonical junction mRNA, compound concentration having 50% response in CJ decrease, read-out: MYB IC50 (decrease in CJ mRNA levels).

For the compound `CCN(c1ccc(-c2ccc(-c3cn[nH]c3)c3ncsc23)nn1)C1CC(C)(C)NC(C)(C)C1` [Compound 225], the IC50 in the assay with HTT [1] (setting [7]) fell in the range of 1 to 10 µM; in the assay on HTT [1] (setting [9]), 1 to 10 µM; with MYB [2] (setting [10]) it was 0.1 to 1 µM; in the assay on MYB [2] (setting [11]), 0.1 to 1 µM; in the assay on SMN2 it was 0.1 to 1 µM; in the assay on Target C [3], 1 to 10 µM. Further, the figures for the half-maximal inhibitory concentration (IC50) with MYB [4], in the assay on HTT [5] and in the assay on Target C [6] were 0.1 to 1 µM, 0.1 to 1 µM and 1 to 10 µM, respectively. Besides, the values for the AC50 in the assay on HTT [1] (setting [8]) and with MYB [2] (setting [8]) were 1 to 10 µM and above 10 µM, respectively.
For `c1n[nH]cc1-c1ccc(-c2ccc(N3CC4(CCNCC4)C3)nn2)c2[nH]ncc12` [Compound 229], the IC50 with HTT [1] (setting [7]), in the assay on HTT [1] (setting [9]), in the assay with MYB [2] (setting [10]), in the assay with MYB [2] (setting [11]), with SMN2 and in the assay on Target C [3] was 1 to 10 µM throughout. The IC50 in the assay with MYB [4], in the assay on HTT [5] and in the assay on Target C [6] was 1 to 10 µM throughout. Moreover, the AC50 with HTT [1] (setting [8]) and in the assay with MYB [2] (setting [8]) was 1 to 10 µM throughout.
`c1n[nH]cc1-c1ccc(-c2ccc(OC3CCNCC3)nn2)c2[nH]ncc12` [Compound 230]: the IC50 with HTT [1] (setting [7]) is above 10 µM; in the assay with HTT [1] (setting [9]) it was above 10 µM; with MYB [2] (setting [10]) it was above 10 µM; with MYB [2] (setting [11]) it was above 10 µM; in the assay on SMN2 it was 1 to 10 µM; with Target C [3], above 10 µM. The 50% inhibitory concentration (IC50) with MYB [4] is 1 to 10 µM; in the assay with HTT [5], 1 to 10 µM; with Target C [6] it was above 10 µM. Further, the AC50 with HTT [1] (setting [8]) and in the assay with MYB [2] (setting [8]) was above 10 µM throughout.
With `[2H]C([2H])([2H])N(c1ccc(-c2ccc(-c3cn[nH]c3)c3ncsc23)nn1)C1CC(C)(C)NC(C)(C)C1` [Compound 231], the IC50 in the assay on HTT [1] (setting [7]) was 0.1 to 1 µM; in the assay on HTT [1] (setting [9]) it was 0.1 to 1 µM; in the assay with MYB [2] (setting [10]), 0.1 to 1 µM; in the assay on MYB [2] (setting [11]), 0.1 to 1 µM; with SMN2 it was below 0.1 µM; in the assay with Target C [3], 0.1 to 1 µM. Further, the IC50 was 0.1 to 1 µM with MYB [4], below 0.1 µM with HTT [5] and 0.1 to 1 µM in the assay with Target C [6]. The AC50 in the assay with HTT [1] (setting [8]) and in the assay on MYB [2] (setting [8]) was 0.1 to 1 µM each time.
On to `Cn1cc(-c2ccc(-c3ccc(OC4CC(C)(C)NC(C)(C)C4)nn3)c3[nH]ncc23)cn1` [Compound 232], for which the IC50 with HTT [1] (setting [7]) was in the range of 1 to 10 µM; with HTT [1] (setting [9]), 1 to 10 µM; in the assay with MYB [2] (setting [10]), 1 to 10 µM; with MYB [2] (setting [11]), 1 to 10 µM; with SMN2 it was 0.1 to 1 µM; in the assay on Target C [3], 1 to 10 µM. The figures for the IC50 with MYB [4], in the assay with HTT [5] and in the assay with Target C [6] were 1 to 10 µM, 0.1 to 1 µM and 1 to 10 µM, respectively. For the same compound, the AC50 in the assay on HTT [1] (setting [8]) and in the assay with MYB [2] (setting [8]) was 0.1 to 1 µM each time.
Consider `COc1cc(-c2ccc(-c3ccc(N(C)C4CC(C)(C)NC(C)(C)C4)nn3)c3ncsc23)cnn1` [Compound 233], for which the IC50 with HTT [1] (setting [7]), with HTT [1] (setting [9]), in the assay on MYB [2] (setting [10]), in the assay with MYB [2] (setting [11]), in the assay with SMN2 and in the assay with Target C [3] was 0.1 to 1 µM in each case. Further, the IC50 in the assay with MYB [4], in the assay on HTT [5] and in the assay with Target C [6] was 0.1 to 1 µM each time. In addition, the AC50 with HTT [1] (setting [8]) and in the assay with MYB [2] (setting [8]) was 0.1 to 1 µM in each case.
Consider `CN(c1ccc(-c2ccc(-c3cnnc(O)c3)c3scnc23)nn1)C1CC(C)(C)NC(C)(C)C1` [Compound 234], for which the IC50 in the assay on HTT [1] (setting [7]) is above 10 µM; in the assay with HTT [1] (setting [9]), above 10 µM; in the assay with MYB [2] (setting [10]), above 10 µM; in the assay on MYB [2] (setting [11]) it was above 10 µM; in the assay with SMN2, 0.1 to 1 µM; in the assay on Target C [3], above 10 µM. Further, the IC50 is 1 to 10 µM in the assay with MYB [4], 1 to 10 µM in the assay with HTT [5] and above 10 µM with Target C [6]. Further, the AC50 in the assay on HTT [1] (setting [8]) and in the assay with MYB [2] (setting [8]) was above 10 µM throughout.
In the case of `CN1C[C@@H]2[C@H](C1)[C@H]2N(C)c1ccc(-c2ccc(-c3cn[nH]c3)c3ncsc23)nn1` [Compound 235], the IC50 is above 10 µM in the assay on HTT [1] (setting [7]); above 10 µM in the assay on HTT [1] (setting [9]); above 10 µM with MYB [2] (setting [10]); above 10 µM with MYB [2] (setting [11]); 1 to 10 µM with SMN2; above 10 µM with Target C [3]. Moreover, the values for the IC50 in the assay with MYB [4], in the assay on HTT [5] and in the assay on Target C [6] were 1 to 10 µM, 1 to 10 µM and 0.1 to 1 µM, respectively. Moreover, the AC50 in the assay on HTT [1] (setting [8]) and in the assay on MYB [2] (setting [8]) was above 10 µM each time.
For the compound `c1n[nH]cc1-c1ccc(-c2ccc(NC3CNC3)nn2)c2[nH]ncc12` [Compound 237], the IC50 with HTT [1] (setting [7]), with HTT [1] (setting [9]), with MYB [2] (setting [10]), in the assay with MYB [2] (setting [11]), in the assay with SMN2 and in the assay with Target C [3] was above 10 µM each time. For the same compound, the IC50 with MYB [4], with HTT [5] and in the assay with Target C [6] was above 10 µM in each case. Further, the AC50 in the assay on HTT [1] (setting [8]) and in the assay on MYB [2] (setting [8]) was above 10 µM throughout.
Take `c1n[nH]cc1-c1ccc(-c2ccc(N3CCC4(CC3)CNC4)nn2)c2[nH]ncc12` [Compound 238]: the IC50 in the assay on HTT [1] (setting [7]), in the assay on HTT [1] (setting [9]), in the assay on MYB [2] (setting [10]), in the assay with MYB [2] (setting [11]), in the assay with SMN2 and with Target C [3] was above 10 µM in each case. Moreover, the IC50 with MYB [4], in the assay with HTT [5] and with Target C [6] was above 10 µM in each case. The AC50 with HTT [1] (setting [8]) and in the assay with MYB [2] (setting [8]) was above 10 µM throughout.
Regarding `c1n[nH]cc1-c1ccc(-c2ccc(N3CCC4(CCNCC4)C3)nn2)c2[nH]ncc12` [Compound 239], the IC50 in the assay on HTT [1] (setting [7]), in the assay with HTT [1] (setting [9]), in the assay on MYB [2] (setting [10]), in the assay with MYB [2] (setting [11]), with SMN2 and in the assay on Target C [3] was above 10 µM each time. Moreover, the IC50 in the assay with MYB [4], in the assay on HTT [5] and in the assay with Target C [6] was above 10 µM in each case. Moreover, the AC50 with HTT [1] (setting [8]) and in the assay on MYB [2] (setting [8]) was above 10 µM throughout.
On to `c1n[nH]cc1-c1ccc(-c2ccc(N3CCC4(CCNC4)CC3)nn2)c2[nH]ncc12` [Compound 240], for which the IC50 with HTT [1] (setting [7]), in the assay on HTT [1] (setting [9]), in the assay with MYB [2] (setting [10]), in the assay on MYB [2] (setting [11]), in the assay with SMN2 and in the assay with Target C [3] was above 10 µM in each case. In addition, the IC50 in the assay with MYB [4], in the assay on HTT [5] and in the assay on Target C [6] was above 10 µM in each case. In addition, the AC50 in the assay with HTT [1] (setting [8]) and in the assay on MYB [2] (setting [8]) was above 10 µM in each case.
Take `c1n[nH]cc1-c1ccc(-c2ccc(N3CCNCC3)nn2)c2[nH]ncc12` [Compound 241]: the IC50 in the assay with HTT [1] (setting [7]) is above 10 µM; in the assay with HTT [1] (setting [9]), above 10 µM; in the assay with MYB [2] (setting [10]), above 10 µM; with MYB [2] (setting [11]) it was above 10 µM; with SMN2 it was 1 to 10 µM; in the assay on Target C [3], above 10 µM. In addition, the IC50 with MYB [4], in the assay on HTT [5] and in the assay with Target C [6] was 1 to 10 µM in each case. Further, the AC50 with HTT [1] (setting [8]) and in the assay with MYB [2] (setting [8]) was 1 to 10 µM in each case.
For the compound `CN(c1ccc(-c2ccc(-c3cnn(C)c3)c3cn[nH]c23)nn1)C1CC(C)(C)NC(C)(C)C1` [Compound 243], the IC50 in the assay on HTT [1] (setting [7]) is 1 to 10 µM; in the assay with HTT [1] (setting [9]), 1 to 10 µM; in the assay on MYB [2] (setting [10]) it was 1 to 10 µM; in the assay on MYB [2] (setting [11]), 1 to 10 µM; with SMN2, 0.1 to 1 µM; in the assay with Target C [3], above 10 µM. In addition, the results for the IC50 with MYB [4], in the assay on HTT [5] and with Target C [6] were 1 to 10 µM, 1 to 10 µM and above 10 µM, respectively. The AC50 with HTT [1] (setting [8]) and in the assay on MYB [2] (setting [8]) was 1 to 10 µM in each case.
